From patent US9176131B2, “Method for diagnosing and treating Crohn's disease” (priority 2004, dated 2015)

System: E. coli LF82 strain (adhesion to the brush border of the enterocytes via the type 1 pili)
Assay: Assay of inhibition by D-mannose of adhesion of E. coli LF82 to isolated enterocytes
Assay type: cell-based, Escherichia coli
Details: for Adhesion index with 2% D-mannose: 2% (w/v) D-mannose, mean number of bacteria adhering to the brush border of an enterocyte; for Adhesion index (% relative) with 2% D-mannose: compared with absence of D-mannose = 100%
Procedure: The adhesion trials were performed as described in Darfeuille-Michaud et al., (1990); S. Knutton et al., (1985) and B. Lafeuille et al., (1981). The frozen intestinal samples were washed 3 times in PBS and the ileal mucosa was scraped with a cover glass in order to detach the enterocytes in PBS buffer supplemented with 0.25 M EDTA. About 10^5 isolated enterocytes were mixed with 10^8 E. coli cells in MEM medium containing 10% fetal calf serum (FCS, Seromed). After incubating for 2 hours at 37° C. and with gentle stirring, the enterocytes were washed 3 times in PBS (pH 7.2). The adhesion of the bacteria was quantified by examining under a phase contrast microscope at magnification×1000. The counting was performed according to a double blind design in order to determine the number of E. coli adhering to the brush border of 30 to 50 enterocytes. The adhesion index is expressed as number of bacteria attached to the brush border of one enterocyte.
The inhibitory power of D-mannose on the adhesion of the E. coli LF82 strain to the brush border of the enterocytes via the type 1 pili was tested. Adhesion trials were performed in the presence of 2% (w/v) D-mannose (Sigma) in MEM containing 10% FCS, the procedure being carried out as described above on enterocytes obtained from 3 CD patients (A, B and C) The results are presented in Table 3.

SMILES: O=C[C@@H](O)[C@@H](O)[C@H](O)[C@H](O)CO [D-mannose]
- Adhesion index with 2% D-mannose (enterocytes of CD patient A): 0.028
- Adhesion index (% relative) with 2% D-mannose (enterocytes of CD patient A): 2.7%
- Adhesion index with 2% D-mannose (enterocytes of CD patient B): 0.032
- Adhesion index (% relative) with 2% D-mannose (enterocytes of CD patient B): 2.1%
- Adhesion index with 2% D-mannose (enterocytes of CD patient C): 0.025
- Adhesion index (% relative) with 2% D-mannose (enterocytes of CD patient C): 1.4%
- Effect on index of adhesion of the LF82 strain to the brush border of the enterocytes (enterocytes of patients suffering from Crohn's disease, 2% D-mannose): significant reduction
